Source: ChEMBL document CHEMBL3868618, “Synthesis and biological evaluation of chalcone derivatives containing aminoguanidine or acylhydrazone moieties” (Bioorg Med Chem Lett, 2016)
Converted amounts (≈) assume the structure as drawn.

Columns and labels:
Candida albicans [1] = assay: Antifungal activity against Candida albicans 7535 measured after 24 hrs by two-fold serial dilution method; format: functional; details: Candida albicans, 7535, 24 h
Mus musculus [2] = assay: Antiinflammatory activity in mouse assessed as inhibition of xylene-induced ear edema at 100 mg/kg, ip administered 30 mins before xylene challenge measured after 30 mins relative to DMSO-control; format: functional
Mus musculus [3] = assay: Antiinflammatory activity in mouse assessed as inhibition of xylene-induced ear edema at 100 mg/kg, po administered 5 hrs before xylene challenge measured after 3 hrs; format: functional
Streptococcus mutans = assay: Antibacterial activity against Streptococcus mutans 3065 measured after 24 hrs by two-fold serial dilution method; format: functional; details: Streptococcus mutans, 3065, 24 h
Pseudomonas aeruginosa = assay: Antibacterial activity against Pseudomonas aeruginosa 2742 measured after 24 hrs by two-fold serial dilution method; format: functional; details: Pseudomonas aeruginosa, 2742, 24 h
Staphylococcus aureus [4] = assay: Antibacterial activity against Staphylococcus aureus 4220 measured after 24 hrs by two-fold serial dilution method; format: functional; details: Staphylococcus aureus, 4220, 24 h
[5] = Cytotoxicity against human L02 cells assessed as reduction in cell viability measured after 24 hrs by MTT assay; format: toxicity, cell-based
Mus musculus [6] = assay: Antiinflammatory activity in mouse assessed as inhibition of xylene-induced ear edema at 100 mg/kg, po administered 1 hr before xylene challenge measured after 3 hrs; format: functional
Staphylococcus aureus [7] = assay: Antibacterial activity against quinolone-resistant Staphylococcus aureus 3505 measured after 24 hrs by two-fold serial dilution method; format: functional; details: Staphylococcus aureus, 3505, 24 h
Mus musculus [8] = assay: Antiinflammatory activity in mouse assessed as inhibition of xylene-induced ear edema at 100 mg/kg, po administered 3 hrs before xylene challenge measured after 3 hrs; format: functional
Salmonella typhimurium [9] = assay: Antibacterial activity against Salmonella typhimurium 1926 measured after 24 hrs by two-fold serial dilution method; format: functional, Salmonella enterica subsp. enterica serovar Typhimurium; details: Salmonella enterica, 1926, 24 h
Mus musculus [10] = assay: Antiinflammatory activity in mouse assessed as inhibition of xylene-induced ear edema at 100 mg/kg, po administered 4 hrs before xylene challenge measured after 3 hrs; format: functional
Salmonella typhimurium [11] = assay: Potency index, ratio of moxifloxin MIC to compound MIC against Salmonella typhimurium 1926; format: functional, Salmonella enterica subsp. enterica serovar Typhimurium
[12] = Cytotoxicity against human HeLa cells assessed as reduction in cell viability measured after 24 hrs by MTT assay; format: toxicity, cell-based
Mus musculus [13] = assay: Antiinflammatory activity in mouse assessed as inhibition of xylene-induced ear edema at 25 mg/kg, po administered 2 hrs before xylene challenge measured after 3 hrs; format: functional
Staphylococcus aureus [14] = assay: Antibacterial activity against methicillin-resistant Staphylococcus aureus 3506 measured after 24 hrs by two-fold serial dilution method; format: functional; details: Staphylococcus aureus, 3506, 24 h
Escherichia coli [15] = assay: Antibacterial activity against Escherichia coli 1356 measured after 24 hrs by two-fold serial dilution method; format: functional; details: Escherichia coli, 1356, 24 h
[16] = Cytotoxicity against human Hep3B cells assessed as reduction in cell viability measured after 24 hrs by MTT assay; format: toxicity, cell-based, Hep 3B2
Staphylococcus aureus [17] = assay: Antibacterial activity against Staphylococcus aureus 209 measured after 24 hrs by two-fold serial dilution method; format: functional; details: Staphylococcus aureus, 209, 24 h
Candida albicans [18] = assay: Potency index, ratio of fluconazole MIC to compound MIC against Candida albicans 7535; format: functional
Mus musculus [19] = assay: Antiinflammatory activity in mouse assessed as inhibition of xylene-induced ear edema at 100 mg/kg, po administered 24 hrs before xylene challenge measured after 3 hrs; format: functional
Staphylococcus aureus [20] = assay: Antibacterial activity against quinolone-resistant Staphylococcus aureus 3519 measured after 24 hrs by two-fold serial dilution method; format: functional; details: Staphylococcus aureus, 3519, 24 h
Salmonella typhimurium [21] = assay: Potency index, ratio of gatifloxacin MIC to compound MIC against Salmonella typhimurium 1926; format: functional, Salmonella enterica subsp. enterica serovar Typhimurium
Mus musculus [22] = assay: Antiinflammatory activity in mouse assessed as inhibition of xylene-induced ear edema at 100 mg/kg, po administered 2 hrs before xylene challenge measured after 3 hrs; format: functional
Staphylococcus aureus [23] = assay: Antibacterial activity against methicillin-resistant Staphylococcus aureus 3167 measured after 24 hrs by two-fold serial dilution method; format: functional; details: Staphylococcus aureus, 3167, 24 h
Staphylococcus aureus [24] = assay: Antibacterial activity against Staphylococcus aureus 503 measured after 24 hrs by two-fold serial dilution method; format: functional; details: Staphylococcus aureus, 503, 24 h
Escherichia coli [25] = assay: Antibacterial activity against Escherichia coli 1924 measured after 24 hrs by two-fold serial dilution method; format: functional; details: Escherichia coli, 1924, 24 h
Mus musculus [26] = assay: Antiinflammatory activity in mouse assessed as inhibition of xylene-induced ear edema at 50 mg/kg, po administered 2 hrs before xylene challenge measured after 3 hrs; format: functional

N=C(N)N/N=C/c1ccc(/C=C/C(=O)c2ccc(Cl)cc2Cl)cc1
MIC (Candida albicans [1]): 1 µg/mL (≈ 2.77 µM) | inhibition in vivo at 100 mg/kg (Mus musculus [2]): 92.5% | inhibition in vivo at 100 mg/kg (Mus musculus [3]): 11.3% | MIC (Streptococcus mutans): 2 µg/mL (≈ 5.54 µM) | MIC (Pseudomonas aeruginosa): 2 µg/mL (≈ 5.54 µM) | MIC (Staphylococcus aureus [4]): 2 µg/mL (≈ 5.54 µM) | IC50 at 24 h [5]: 18.1 µg/mL (≈ 50.1 µM) | inhibition in vivo at 100 mg/kg (Mus musculus [6]): 20.7% | MIC (Staphylococcus aureus [7]): 8 µg/mL (≈ 22.1 µM) | inhibition in vivo at 100 mg/kg (Mus musculus [8]): 26.4% | MIC (Salmonella typhimurium [9]): 1 µg/mL (≈ 2.77 µM) | inhibition in vivo at 100 mg/kg (Mus musculus [10]): 16.9% | Ratio (Salmonella typhimurium [11]): 1 | IC50 at 24 h [12]: 8.7 µg/mL (≈ 24.1 µM) | inhibition in vivo at 25 mg/kg (Mus musculus [13]): 17.6% | MIC (Staphylococcus aureus [14]): 8 µg/mL (≈ 22.1 µM) | MIC (Escherichia coli [15]): 8 µg/mL (≈ 22.1 µM) | IC50 at 24 h [16]: 15.3 µg/mL (≈ 42.4 µM) | MIC (Staphylococcus aureus [17]): 2 µg/mL (≈ 5.54 µM) | Ratio (Candida albicans [18]): 2 | inhibition in vivo at 100 mg/kg (Mus musculus [19]): 5.52% | MIC (Staphylococcus aureus [20]): 16 µg/mL (≈ 44.3 µM) | Ratio (Salmonella typhimurium [21]): 1 - 2 | inhibition in vivo at 100 mg/kg (Mus musculus [22]): 34.2 to 43.5% | MIC (Staphylococcus aureus [23]): 8 µg/mL (≈ 22.1 µM) | MIC (Staphylococcus aureus [24]): 2 µg/mL (≈ 5.54 µM) | MIC (Escherichia coli [25]): 2 µg/mL (≈ 5.54 µM) | inhibition in vivo at 50 mg/kg (Mus musculus [26]): 33.7%
